Where a name gives a salt, the structure may show the parent alone.
target: recombinant GST fusion MALT1 (human MALT1) (Homo sapiens (Human), UniProt Q9UDY8); assay: Evaluation of inhibition of protease activity of MALT1 (cleavage of fluorescent peptide substrate Ac-LRSR-AMC); type: biochemical; conditions: substrate Ac-LRSR-AMC 20 μmol/L, 30° C. for 80 minutes
Description: The guanidine derivative (I) or the pharmacologically acceptable salt thereof was evaluated for its inhibition of the protease activity of MALT1 in an in vitro experimental system in accordance with the method described in the literature (Cancer Cell, 2012, Vol. 22, p. 825-837). Specifically, the evaluation was conducted by measuring the degree of reduction in fluorescence value by the compound relative to elevation in fluorescence value resulting from the cleavage of a fluorescently labeled artificial peptide substrate by recombinant MALT1.
A) Preparation of Recombinant GST Fusion MALT1:
Full-length cDNA of human MALT1 gene (GenBank accession No: AB026118.1) amplified by PCR was inserted in flame to a SalI site located downstream of GST gene in a pGEX6P3 vector (GE Healthcare Japan Corp.) to prepare a vector (hereinafter, referred to as a pGEX6P3-MALT1 vector). Subsequently, E. coli for protein expression (BL21-RIL-codon plus-DE3, Agilent Technologies, Inc.) was transformed with the pGEX6P3-MALT1 vector and then analyzed by ampicillin resistance screening and colony PCR to obtain an E. coli strain expressing recombinant GST fusion MALT1. Protein expression was induced with isopropyl-(3-thiogalactopyranoside. After the expression induction, E. coli precipitates were recovered by centrifugation from the E. coli culture solution, and the E. coli precipitates were homogenized and then centrifuged to obtain a supernatant. The supernatant was purified using GSTrap FF column (GE Healthcare Japan Corp.) to obtain recombinant GST fusion MALT1.
B) Evaluation of Inhibition of Protease Activity of MALT1:
To 89 μL of an enzyme solution ([…] GST fusion MALT1, 50 mmol/L MES, 150 mmol/L NaCl, 10% sucrose, 0.1% CHAPS, 10 mmol/L dithiothreitol, and 1 mol/L tri-ammonium citrate) per specimen, 1 μL of a test compound (DMSO-diluted solution) of each concentration was added to prepare a mixed solution. The mixed solution was incubated at room temperature for 30 minutes, followed by the measurement of the fluorescence value of the mixed solution (fluorescence value of the first measurement) (Ex: 380 nm, Em: 460 nm; Envision (Perkin Elmer Inc.)). Next, 10 μL of 200 μmol/L substrate (Ac-LRSR-AMC, SM Biochemicals LLC) was added (final concentration: 20 μmol/L) to the mixed solution, and the mixture was reacted by incubation at 30° C. for 80 minutes, followed by the measurement of the fluorescence value of the reaction solution (fluorescence value of the second measurement) (Ex: 380 nm, Em: 460 nm; Envision (Perkin Elmer Inc.)). A “well nonsupplemented with the test compound (only DMSO was added), nonsupplemented with the enzyme and supplemented with the substrate”, and a “well nonsupplemented with the test compound (only DMSO was added), supplemented with the enzyme and supplemented with the substrate” were established.
The fluorescence value of the first measurement was defined as “F1”, and the fluorescence value of the second measurement was defined as “F2”. F2−F1 of the “well nonsupplemented with the test compound (only DMSO was added), nonsupplemented with the enzyme and supplemented with the substrate” was defined as “Fback”, F2−F1 of the “well nonsupplemented with the test compound (only DMSO was added), supplemented with the enzyme and supplemented with the substrate” was defined as “Fpositive”, and F2−F1 of the “well supplemented with the test compound, supplemented with the enzyme and supplemented with the substrate” was defined as “Fsample”. The rate of inhibition (%) of the protease activity of MALT1 by the test compound was calculated according to the following expression. Rate of inhibition (%)=100×(1−(Fsample−Fback)/(Fpositive−Fback))

recombinant GST fusion MALT1 (human MALT1), sequence (Q9UDY8 whole entry, the tested form may be a part): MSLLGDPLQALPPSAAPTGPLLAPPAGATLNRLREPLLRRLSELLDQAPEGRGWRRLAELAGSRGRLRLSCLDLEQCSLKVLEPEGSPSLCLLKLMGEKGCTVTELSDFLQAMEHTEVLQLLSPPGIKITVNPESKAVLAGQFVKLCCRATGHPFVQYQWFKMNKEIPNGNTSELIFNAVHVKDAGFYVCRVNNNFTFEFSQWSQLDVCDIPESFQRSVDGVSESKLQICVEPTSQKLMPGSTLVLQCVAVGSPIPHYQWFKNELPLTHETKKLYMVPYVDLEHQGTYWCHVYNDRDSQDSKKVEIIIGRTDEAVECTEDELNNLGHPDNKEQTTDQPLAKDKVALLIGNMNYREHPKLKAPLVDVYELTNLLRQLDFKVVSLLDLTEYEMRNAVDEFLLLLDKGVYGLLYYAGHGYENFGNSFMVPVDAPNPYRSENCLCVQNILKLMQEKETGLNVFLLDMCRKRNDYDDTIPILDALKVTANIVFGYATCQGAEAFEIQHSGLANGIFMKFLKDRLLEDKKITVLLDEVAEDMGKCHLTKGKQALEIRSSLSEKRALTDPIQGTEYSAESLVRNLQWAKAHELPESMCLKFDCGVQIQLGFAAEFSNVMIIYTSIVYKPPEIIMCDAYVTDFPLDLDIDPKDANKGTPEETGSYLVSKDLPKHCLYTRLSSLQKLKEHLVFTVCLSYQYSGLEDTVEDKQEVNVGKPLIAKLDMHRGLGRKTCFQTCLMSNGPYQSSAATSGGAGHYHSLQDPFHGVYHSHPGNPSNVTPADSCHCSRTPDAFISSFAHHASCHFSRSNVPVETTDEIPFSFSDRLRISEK

| IC50 | SMILES |
| --- | --- |
| 462 nM | CCCCCC(=O)/N=C(\N)NCc1cnc(-c2ccc(Cl)cc2)c(-c2ccc(Cl)cc2)c1 [Compound of Example 65, N-(amino(((5,6-bis(4-chlorophenyl)pyridin-3-yl)methyl)amino)methylene)hexanamide] |
| 102 nM | N/C(=N\S(=O)(=O)c1ccco1)NCc1cnc(-c2ccc(Cl)cc2)c(-c2ccc(Cl)cc2)c1 [Compound of Example 31, N-(amino(((5,6-bis(4-chlorophenyl)pyridin-3-yl)methyl)amino)methylene)furan-2-sulfonamide] |
| 644 nM | N/C(=N\C(=O)c1ccccc1F)NCc1cnc(-c2ccc(Cl)cc2)c(-c2ccc(Cl)cc2)c1 [Compound of Example 67, N-(amino(((5,6-bis(4-chlorophenyl)pyridin-3-yl)methyl)amino)methylene)-2-fluorobenzamide] |
| 1610 nM | N/C(=N\S(=O)(=O)c1ccccc1)NCc1cnc(-c2ccc(Cl)cc2)c(-c2ccc(O)cc2)c1 [Compound of Example 94, N-(amino(((6-(4-chlorophenyl)-5-(4-hydroxyphenyl)pyridin-3-yl)methyl)amino)methylene)benzenesulfonamide Hydrochloride] |
| 692 nM | N/C(=N\S(=O)(=O)c1ccccc1)NCc1cnc(-c2ccc(Cl)cc2)c(-c2ccccc2)c1 [Compound of Example 14, N-(amino(((6-(4-chlorophenyl)-5-phenylpyridin-3-yl)methyl)amino)methylene)benzenesulfonamide] |
| 471 nM | N#Cc1ccc(C(=O)/N=C(\N)NCc2cnc(-c3ccc(Cl)cc3)c(-c3ccc(Cl)cc3)c2)cc1 [Compound of Example 62, N-(amino(((5,6-bis(4-chlorophenyl)pyridin-3-yl)methyl)amino)methylene)-4-cyanobenzamide] |
| 296 nM | N/C(=N\C(=O)CCc1ccccc1)NCc1cnc(-c2ccc(Cl)cc2)c(-c2ccc(Cl)cc2)c1 [Compound of Example 74, N-(amino(((5,6-bis(4-chlorophenyl)pyridin-3-yl)methyl)amino)methylene)-3-phenylpropanamide] |
| 754 nM | N/C(=N\C(=O)c1ccco1)NCc1cnc(-c2ccc(Cl)cc2)c(-c2ccc(Cl)cc2)c1 [Compound of Example 78, N-(amino(((5,6-bis(4-chlorophenyl)pyridin-3-yl)methyl)amino)methylene)furan-2-carboxamide] |
| 308 nM | N/C(=N\S(=O)(=O)c1ccccc1)NCc1cnc(-c2ccc(Cl)cc2)c(-c2cccc(Cl)c2)c1 [Compound of Example 15, N-(amino(((5-(3-chlorophenyl)-6-(4-chlorophenyl)pyridin-3-yl)methyl)amino)methylene)benzenesulfonamide] |
| 114 nM | COc1cccc(S(=O)(=O)/N=C(\N)NCc2cnc(-c3ccc(Cl)cc3)c(-c3ccc(Cl)cc3)c2)c1 [Compound of Example 50, N-(amino(((5,6-bis(4-chlorophenyl)pyridin-3-yl)methyl)amino)methylene)-3-methoxybenzenesulfonamide] |
| 679 nM | NC(=O)/N=C(\N)NCc1cnc(-c2ccc(Cl)cc2)c(-c2ccc(Cl)cc2)c1 [Compound of Example 41, 1-(amino(((5,6-bis(4-chlorophenyl)pyridin-3-yl)methyl)amino)methylene)urea Hydrochloride] |
| 356 nM | N/C(=N\S(=O)(=O)c1ccc(F)cc1)NCc1cnc(-c2ccc(Cl)cc2)c(-c2ccc(Cl)cc2)c1 [Compound of Example 28, N-(amino(((5,6-bis(4-chlorophenyl)pyridin-3-yl)methyl)amino)methylene)-4-fluorobenzenesulfonamide] |
| 1040 nM | N/C(=N\S(=O)(=O)c1ccccc1)NCc1cnc(-c2ccccc2)c(-c2ccc(C(F)(F)F)cc2)c1 [Compound of Example 92, N-(amino(((6-phenyl-5-(4-(trifluoromethyl)phenyl)pyridin-3-yl)methyl)amino)methylene)benzenesulfonamide] |

— US10662156B2, “Guanidine derivative and medical use thereof” (Toray Industries, Inc., priority 2016, dated 2020)
